Results from US20160311791A1, “NOVEL TRICYCLIC CALCIUM SENSING RECEPTOR ANTOGONISTS FOR THE TREATMENT OF OSTEOPOSOSIS” (MERCK SHARP & DOHME CORP., priority 2013, published 2016).

The compounds below were run against T1, human CaSR (Homo sapiens, UniProt P41180) (assay: CaSR FLIPR assay (calcilytic activity)). Settings: HEK293 cells stably expressing human recombinant CaSR; 1 mM CaCl2 agonist; Tables 1-24; read-out: FLIPR ASSAY IC50.
T1 sequence (P41180 20-1078): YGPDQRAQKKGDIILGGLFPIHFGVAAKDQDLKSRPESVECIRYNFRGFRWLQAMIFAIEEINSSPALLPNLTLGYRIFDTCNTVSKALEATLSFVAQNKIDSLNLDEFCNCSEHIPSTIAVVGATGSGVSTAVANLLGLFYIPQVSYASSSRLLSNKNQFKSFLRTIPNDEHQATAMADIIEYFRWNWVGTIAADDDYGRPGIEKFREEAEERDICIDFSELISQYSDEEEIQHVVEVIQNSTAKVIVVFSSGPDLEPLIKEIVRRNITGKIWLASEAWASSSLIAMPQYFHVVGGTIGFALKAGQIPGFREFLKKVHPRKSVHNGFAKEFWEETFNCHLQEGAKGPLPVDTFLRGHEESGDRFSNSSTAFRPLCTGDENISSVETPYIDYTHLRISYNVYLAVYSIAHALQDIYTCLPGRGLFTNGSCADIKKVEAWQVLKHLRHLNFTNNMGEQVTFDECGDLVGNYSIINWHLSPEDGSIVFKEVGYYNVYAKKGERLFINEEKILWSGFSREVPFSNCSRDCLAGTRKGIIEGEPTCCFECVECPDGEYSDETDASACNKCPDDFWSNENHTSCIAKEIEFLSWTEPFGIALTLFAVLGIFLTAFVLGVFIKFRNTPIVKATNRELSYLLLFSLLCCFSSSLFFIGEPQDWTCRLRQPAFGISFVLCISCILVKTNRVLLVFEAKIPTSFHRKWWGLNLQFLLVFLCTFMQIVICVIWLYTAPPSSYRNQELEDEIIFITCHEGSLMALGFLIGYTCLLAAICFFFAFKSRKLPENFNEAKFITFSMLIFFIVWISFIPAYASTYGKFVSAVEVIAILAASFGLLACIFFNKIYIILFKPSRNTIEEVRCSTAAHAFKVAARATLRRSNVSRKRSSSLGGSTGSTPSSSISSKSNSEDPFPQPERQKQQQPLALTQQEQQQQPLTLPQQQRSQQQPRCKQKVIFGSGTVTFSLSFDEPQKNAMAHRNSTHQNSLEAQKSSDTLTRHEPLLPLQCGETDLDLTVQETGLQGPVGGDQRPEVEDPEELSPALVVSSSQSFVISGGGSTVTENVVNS
Type: cell-based
Parameters: expressed in transfected cells
Protocol: Procedures for CaSR FLIPR Assay
Calcilytic activity of the compound is measured in HEK293 cells stably expressing human recombinant CaSR (HEK-CaSR) using a FLIPR^TETRA device (Molecular Devices, Sunnyvale, Calif.) according to the manufacturer's directions. […] On the day of the assay, one vial of FLIPR Calcium 4 Assay Kit reagent Component A was equilibrated to room temperature. The content of the Component A vial was diluted by adding 10 ml dilution buffer (2×loading dye). The sample was mixed by vortexing (1-2 minutes) until the contents of the vial dissolved. The Component A vial mixture was diluted with 10 ml dilution buffer. Media was aspirated from the cells and 80 μl of loading buffer was added to each well. Plates were incubated for 1 hour at 37° C. and then placed at room temperature for 10 minutes. A two-stage method of generating 10-point serial dilutions was used. Compound was serially diluted in 100% DMSO (10 point, 3-fold dilution of each compound from 2 mM in 100% DMSO). 3 μl of serially diluted compound was transferred into a second assay microplate that contained 97 μl of TETRA dilution buffer (20 mM HEPES pH7.4, 1×HBSS without Ca and Mg, 0.4 mM CaCl2, 0.4 mM MgSO4, 0.5 mM MgCl2) to create the intermediate dilution plate. After reading the base line, the compounds in 0.5% DMSO in dilution buffer were added to their respective wells as 20 μl aliquots at 6×the final drug concentration. The fluorescence signals were then read. Subsequently, 20 μl of 3.6 mM of CaCl2 agonist (1 mM final concentration) was added to each well. For background, 20 μl of TETRA dilution buffer was added instead. The protocol consisted of a pre-addition read of 10 frames (10×1 frame/sec), a post 1st addition read of 100 frames (60×1 frame/sec, 40×1 frame/3 sec), pause 3 min, a post 2nd addition read of 100 frames (60×1 frame/sec, 40×1 frame/3 sec) on a FLIPR^TETRA Plate Reader.

Row | Compound | IC50 [nM]
1 | C[C@@H](OC[C@H](O)CNC(C)(C)CC1Cc2ccccc2C1)c1cccc2c1O[C@@H]1[C@@H](C(=O)O)[C@H]21 [Example 1-3] | 40
2 | Cc1ccc(CC(C)(C)NC[C@@H](O)CO[C@H](C)c2cccc3c2O[C@@H]2[C@@H](C(=O)O)[C@H]32)c(F)c1 [Example 1-11] | 140
3 | COc1ccc(CC(C)(C)NC[C@@H](O)CO[C@H](C)c2cccc3c2O[C@@H]2[C@@H](C(=O)O)[C@H]32)c(Cl)c1 [Example 1-19] | 170
4 | C[C@@H](OC[C@H](O)CNC(C)(C)CC1Cc2ccccc2C1)c1cccc2c1O[C@H]1[C@H](C(=O)O)[C@@H]21 [Example 2-3] | 307
5 | C[C@@H](OC[C@H](O)CNC(C)(C)C(=O)N1CCc2ccccc2C1)c1cccc2c1O[C@H]1[C@H](C(=O)O)[C@@H]21 [Example 2-7] | ≥ 10000
6 | C[C@@H](OC[C@H](O)CNC(C)(C)CN1CCc2ccccc2C1)c1cccc2c1O[C@H]1[C@H](C(=O)O)[C@@H]21 [Example 2-8] | 7390
7 | C[C@@H](OC[C@H](O)CNC(C)(C)Cc1ccc(Cl)c(F)c1)c1cccc2c1[C@@H]1[C@H](O2)[C@H]1C(=O)O [Example 5-2] | 32
8 | C[C@@H](OC[C@H](O)CNC(C)(C)CC1Cc2ccccc2C1)c1cccc2c1[C@@H]1[C@H](O2)[C@H]1C(=O)O [Example 5-3] | 35.5
9 | Cc1ccc(CC(C)(C)NC[C@@H](O)CO[C@H](C)c2cccc3c2[C@@H]2[C@H](O3)[C@H]2C(=O)O)cc1C [Example 5-5] | 26
10 | C[C@@H](OC[C@H](O)CNC(C)(C)Cc1ccc2occc2c1)c1cccc2c1[C@@H]1[C@H](O2)[C@H]1C(=O)O [Example 5-6] | 137
11 | C[C@@H](OC[C@H](O)CNC(C)(C)Cc1ccc2c(c1)CCC2)c1cccc2c1[C@@H]1[C@H](O2)[C@H]1C(=O)O [Example 5-7] | 25
12 | C[C@@H](OC[C@H](O)CNC(C)(C)Cc1ccc2c(c1)OCO2)c1cccc2c1[C@@H]1[C@H](O2)[C@H]1C(=O)O [Example 5-8] | 160
13 | C[C@@H](OC[C@H](O)CNC(C)(C)Cc1ccc2sccc2c1)c1cccc2c1[C@@H]1[C@H](O2)[C@H]1C(=O)O [Example 5-9] | 23
14 | C[C@@H](OC[C@H](O)CNC(C)(C)Cc1ccc2c(c1)OCCO2)c1cccc2c1[C@@H]1[C@H](O2)[C@H]1C(=O)O [Example 5-10] | 153
15 | COc1ccc(CC(C)(C)NC[C@@H](O)CO[C@H](C)c2cccc3c2[C@@H]2[C@H](O3)[C@H]2C(=O)O)c(F)c1 [Example 5-11] | 108
16 | C[C@@H](OC[C@H](O)CNC(C)(C)Cc1ccc(Cl)c(Cl)c1)c1cccc2c1[C@@H]1[C@H](O2)[C@H]1C(=O)O [Example 5-12] | 39
17 | CSc1ccc(CC(C)(C)NC[C@@H](O)CO[C@H](C)c2cccc3c2[C@@H]2[C@H](O3)[C@H]2C(=O)O)cc1 [Example 5-13] | 72
18 | CSc1ccc(CC(C)(C)NC[C@@H](O)CO[C@H](C)c2cccc3c2[C@@H]2[C@H](O3)[C@H]2C(=O)O)cc1F [Example 5-14] | 27
19 | C[C@@H](OC[C@H](O)CNC(C)(C)Cc1ccc([S+](C)[O-])c(F)c1)c1cccc2c1[C@@H]1[C@H](O2)[C@H]1C(=O)O (stereo partly drawn) [Example 5-15] | > 10000

Next, values leading:

Row | IC50 [nM] | Compound
20 | 148 | C[C@@H](OC[C@H](O)CNC(C)(C)Cc1ccc(Cl)c(F)c1)c1cccc2c1O[C@@H]1[C@@H](C(=O)O)[C@H]21 [Example 1-2]
21 | 78 | Cc1ccc(CC(C)(C)NC[C@@H](O)CO[C@H](C)c2cccc3c2O[C@@H]2[C@@H](C(=O)O)[C@H]32)cc1F [Example 1-4]
22 | 230 | Cc1ccc(CC(C)(C)NC[C@@H](O)CO[C@H](C)c2cccc3c2O[C@@H]2[C@@H](C(=O)O)[C@H]32)cc1C [Example 1-5]
23 | 49 | C[C@@H](OC[C@H](O)CNC(C)(C)Cc1ccc2occc2c1)c1cccc2c1O[C@@H]1[C@@H](C(=O)O)[C@H]21 [Example 1-6]
24 | 110 | C[C@@H](OC[C@H](O)CNC(C)(C)Cc1ccc2c(c1)CCC2)c1cccc2c1O[C@@H]1[C@@H](C(=O)O)[C@H]21 [Example 1-7]
25 | 320 | C[C@@H](OC[C@H](O)CNC(C)(C)Cc1ccc2c(c1)OCO2)c1cccc2c1O[C@@H]1[C@@H](C(=O)O)[C@H]21 [Example 1-8]
26 | 27 | C[C@@H](OC[C@H](O)CNC(C)(C)Cc1ccc2sccc2c1)c1cccc2c1O[C@@H]1[C@@H](C(=O)O)[C@H]21 [Example 1-9]
27 | 460 | C[C@@H](OC[C@H](O)CNC(C)(C)Cc1ccc2c(c1)OCCO2)c1cccc2c1O[C@@H]1[C@@H](C(=O)O)[C@H]21 [Example 1-10]
28 | 39 | C[C@@H](OC[C@H](O)CNC(C)(C)Cc1ccc(Cl)c(Cl)c1)c1cccc2c1O[C@@H]1[C@@H](C(=O)O)[C@H]21 [Example 1-13]
29 | 38 | C[C@@H](OC[C@H](O)CNC(C)(C)CCCc1ccccc1)c1cccc2c1O[C@@H]1[C@@H](C(=O)O)[C@H]21 [Example 1-14]
30 | 1270 | C[C@@H](OC[C@H](O)CNC(C)(C)Cc1ccc(F)c(F)c1)c1cccc2c1O[C@@H]1[C@@H](C(=O)O)[C@H]21 [Example 1-15]
31 | > 10000 | C[C@@H](OC[C@H](O)CNC(C)(C)Cc1ccc([S+](C)[O-])cc1)c1cccc2c1O[C@@H]1[C@@H](C(=O)O)[C@H]21 (stereo partly drawn) [Example 1-16]
32 | 165 | CSc1ccc(CC(C)(C)NC[C@@H](O)CO[C@H](C)c2cccc3c2O[C@@H]2[C@@H](C(=O)O)[C@H]32)cc1F [Example 1-17]
33 | > 10000 | C[C@@H](OC[C@H](O)CNC(C)(C)Cc1ccc([S+](C)[O-])c(F)c1)c1cccc2c1O[C@@H]1[C@@H](C(=O)O)[C@H]21 (stereo partly drawn) [Example 1-18]
34 | 330 | C[C@@H](OC[C@H](O)CNC(C)(C)CCSc1ccccc1)c1cccc2c1O[C@@H]1[C@@H](C(=O)O)[C@H]21 [Example 1-20]
35 | 86 | CSc1ccc(CC(C)(C)NC[C@@H](O)CO[C@H](C)c2cccc3c2O[C@@H]2[C@@H](C(=O)O)[C@H]32)cc1Cl [Example 1-21]
36 | 132 | C[C@@H](OC[C@H](O)CNC(C)(C)Cc1ccc2ccccc2c1)c1cccc2c1O[C@H]1[C@H](C(=O)O)[C@@H]21 [Example 2-1]
37 | 148 | C[C@@H](OC[C@H](O)CNC(C)(C)Cc1ccc(Cl)c(F)c1)c1cccc2c1O[C@H]1[C@H](C(=O)O)[C@@H]21 [Example 2-2]
38 | 381 | Cc1ccc(CC(C)(C)NC[C@@H](O)CO[C@H](C)c2cccc3c2O[C@H]2[C@H](C(=O)O)[C@@H]32)cc1C [Example 2-4]
39 | 4220 | C[C@@H](OC[C@H](O)CNC(C)(C)COCc1ccccc1)c1cccc2c1O[C@H]1[C@H](C(=O)O)[C@@H]21 [Example 2-5]
40 | 730 | C[C@@H](OC[C@H](O)CNC(C)(C)Cc1ccc(Cl)cc1F)c1cccc2c1O[C@H]1[C@H](C(=O)O)[C@@H]21 [Example 2-6]
41 | 830 | CSc1ccc(CC(C)(C)NC[C@@H](O)CO[C@H](C)c2cccc3c2O[C@H]2[C@H](C(=O)O)[C@@H]32)cc1F [Example 2-9]
42 | 60 | C[C@@H](OC[C@H](O)CNC(C)(C)Cc1ccc2ccccc2c1)c1cccc2c1O[C@@H]1[C@@H](C(=O)NS(=O)(=O)C3(C)CC3)[C@H]21 [Example 4-1]
